The results in this text go back to patent US10030039B2, “Anti-cancer agent and cancer cell killing method” (IHI Corporation, priority 2014, dated 2018).

In the test the test system is cancer cell line (MDA-MB-231) for triple-negative breast cancer. As to the kind of experiment: Cancer Cell Killing Effect Assay 5 (XTT assay). The format is cell-based. The conditions noted are these: MDA-MB-231, 24 hours, 37° C., 5% CO2; 3.750 and 7.500 μM; FIG. 6. On the technique in general: Formazan colour is commonly taken as a measure of viable cells.

Procedure: Cancer Cell Line: Cancer Cell Line (MDA-MB-231) (the G0 Phase) for Triple-Negative Breast Cancer XTT cell proliferation assay kit (manufactured by ATCC) The XTT labeled liquid mixture was adjusted by mixing the XTT reagent (5 ml) and an activation solution (0.1 ml). The cell proliferation assay was conducted in accordance with ATCC's experiment protocol. […] The cancer cell line for the triple-negative breast cancer was cultured by the same method as that of Example 4. RPMI-1640, 10% inactivated bovine serum (GIBCO, USA), and 100 units/ml of penicillin-streptomycin were added to each well (100 μl) of the microplate (for cell proliferation and with 96 holes and a flat bottom) and 3×10^5 cultured cells were seeded. […] The XTT assay was performed by the same method as that of Example 4. The cell survival rate was calculated on the basis of the results of the absorbance measurement and by the method explained in [Cancer Cell Killing Effect Assay 3].

Consider `CC(=O)O[C@H]1C(=O)[C@@]2(C)[C@H]([C@H](OC(=O)c3ccccc3)[C@]3(O)C[C@H](OC(=O)[C@H](O)[C@@H](NC(=O)c4ccccc4)c4ccccc4)C(C)=C1C3(C)C)[C@]1(OC(C)=O)CO[C@@H]1C[C@@H]2O` [paclitaxel], for which the “concentration dependence of reduction of cell survival rate / cell killing effect” value was “concentration-dependent up to a specified concentration”.
